Test results taken from patent publication US7074768B2, “Modified protein kinase A-specific oligonucleotides and methods of their use” (Idera Pharmaceuticals, Inc., priority 1995, dated 2006).

Experiments:
RIα protein = assay: Histochemical analysis of GEO tumors: RIα; assay type: in vivo, human
Source text: (§1) Tumor specimens from the different groups of mice were examined by histochemical analysis at different time points to evaluate the expression of a variety of biological parameters. […] No other treatment was able to affect RIα expression.

[1] = tested on: GEO colon cancer xenografts; assay: GEO colon cancer xenografts in nude mice (tumor growth, survival); assay type: in vivo; settings: for inhibition of tumor growth: 10 mg/kg/dose
Description: We investigated the antitumor activity of HYB 165 (AS RIα) in nude mice bearing GEO colon cancer xenografts, using either the intraperitoneal (i.p.) or the oral route of administration. When established GEO tumors of approximately […] were detectable, groups of 10 mice were treated i.p. with either HYB 165 or a control modified backbone oligonucleotide with a scrambled sequence, at 5 or 10 mg/kg/dose, daily on days 7 to 11 and 14 to 18. […] The control oligonucleotide produced no inhibition at 10 mg/kg/dose.
Following oral administration, modified backbone oligonucleotides (MBOs) are absorbed in the upper and lower part of the GI tract and distributed to major organs (S. Agrawal and R. Zhang, In: Antisense Research and Application, S. T. Crooke, ed.), Handbook of Experimental Pharmacology, Springer, Berlin, p. 525–543 (1998). Therefore, HYB 165 and the control oligonucleotide were administered to GEO tumor-bearing mice as described above, except that HYB 165 and the control oligonucleotide were administered orally.
On day 7 after tumor cell injection, one group of 10 mice was treated with taxol (20 mg/kg/dose, i.p.), and the treatment was repeated every 2 weeks (on day 21 and day 35) for a total of three cycles. Two other groups of mice were treated with either HYB 165 (AS RIα) or a control MBO with a scrambled sequence (10 mg/kg/dose, p.o.), daily for five days (days 8–12). Treatment was repeated every 2 weeks (days 22–26 and days 36–40) for a total of three cycles. Two more groups of mice were treated with taxol and either HYB 165 or the control MBO, administering the taxol (20 mg/kg/dose, i.p.) on day 7, followed by oral administration of either HYB 165 or the control MBO daily for five days (days 8–12). The sequential treatment was repeated with the same schedule every 2 weeks for a total of three cycles.

[2] = tested on: GEO human colon cancer cells; assay: Soft agar growth of GEO cells; assay type: cell-based
Description: Cells (10^4 cells/well) were seeded in 0.5 ml of 0.3% Difco Noble agar (Difco, Detroit, Mich.) supplemented with complete culture medium. This suspension was layered over 0.5 ml of 0.8% agar-medium base layer in 24 multiwell cluster dishes (Becton Dickinson) and treated with various concentrations of paclitaxel (day 0). The HYB 165 was added after 12 hrs (day 1) and on day 2, 3 and 4. 12 days after the last treatment, cells were stained with nitroblue tetrazolium (Sigma) and colonies larger than 0.05 mm were counted.

[3] = tested on: 1A9 human ovarian cancer cells; assay: Soft agar growth of 1A9 cells; assay type: cell-based
Description: Cell lines. The 1A9 cell line is a clone of the human ovarian carcinoma cell line, A2780. 1A9 cells were kindly provided by Giannakakou, NCI Bethesda, Md., USA. Cells were maintained in RPMI medium supplemented with 10% heat-inactivated FBS, 20 mM HEPES, pH 7.4 penicillin (100 UI/ml), streptomycin (100 μg/ml) and 4 mM glutamine (ICN, Irvine, UK) in a humified atmosphere of 95% air and 5% CO2 at 37° C.
Soft agar growth. Cells (10^4 cells/well) were seeded in 0.5 ml of 0.3% Difco Noble agar (Difco, Detroit, Mich.) supplemented with complete culture medium. This suspension was layered over 0.5 ml of 0.8% agar-medium base layer in 24 multiwell cluster dishes (Becton Dickinson) and treated with various concentrations of HYB 165 or HYB508 every 48 hours for three times. After 12 days the cells were stained with nitroblue tetrazolium (Sigma, St. Louis, Mo.) and colonies larger than 0.05 mm were counted.

[4] = tested on: 1A9PTX22 human ovarian cancer cells; assay: Soft agar growth of 1A9PTX22 cells; assay type: cell-based
Description: Cell lines. The 1A9PTX22 cell line, a paclitaxel (PTX)-resistant clone of the human ovarian carcinoma cell line 1A9, was isolated by exposing 1A9 cells to 5 ng/ml PTX in the presence of 5 μg/ml verapamil, a P glicoprotein antagonist. 1A9PTX22 cells were kindly provided by Dr. Giannakakou, NCI Bethesda, Md., USA. Cells were maintained in RPMI medium supplemented with 10% heat-inactivated FBS, 20 mM HEPES, pH 7.4 penicillin (100 UI/ml), streptomycin (100 μg/ml) and 4 mM glutamine (ICN, Irvine, UK) 15 ng/ml PIX and 5 μg/ml verapamil in a humified atmosphere of 95% air and 5% CO2 at 37° C. 7 days before experiments were performed, PTX and verapamil were removed from culture medium.
Soft agar growth. Cells (10^4 cells/well) were seeded in 0.5 ml of 0.3% Difco Noble agar (Difco, Detroit, Mich.) supplemented with complete culture medium. This suspension was layered over 0.5 ml of 0.8% agar-medium base layer in 24 multiwell cluster dishes (Becton Dickinson) and treated with various concentrations of HYB 165 or HYB508 every […] for three times. After 12 days the cells were stained with nitroblue tetrazolium (Sigma, St. Louis, Mo.) and colonies larger than 0.05 mm were counted.

AR = assay: Histochemical analysis of GEO tumors: AR; assay type: in vivo; settings: after two cycles
Source text: Tumor specimens from the different groups of mice were examined by histochemical analysis at different time points to evaluate the expression of a variety of biological parameters.
(§2) TGFα and AR are growth factors which bind to EGFR and control human colon cancer growth through autocrine and paracrine mechanisms (F. Ciardiello and G. Tortora, Clin. Cancer Res. 4:821–828 (1998); D. S. Salomon, Crit. Rev. Oncol. Hematol. 19:183–232 (1995)).

Ki67 = assay: Histochemical analysis of GEO tumors: Ki67 staining; assay type: in vivo; settings: combination of taxol and HYB 165
Source text: as §1, §2

How did the “expression of RIα protein in the tumor” value (RIα protein; in combination with taxol, after two cycles) turn out when “HYB 165: Hybrid 18-mer mixed backbone antisense to PKA RIα, GCGUGCCTCCTCACUGGC (SEQ ID NO:4), 2-O-methyl ribonucleotides at 5′ and 3′ ends (sugars by position and backbone not given here; 2'-O-methyl ribonucleotides at both ends, mixed backbone)” was run?
Its value is “further increased”.

What about the “expression of RIα protein in the tumor” value (RIα protein; single agent, after two cycles of treatment, FIG. 18) of the same substance?
Its value is “inhited expression of the target RIα protein in the tumor”.

And the “inhibition of tumor size” value ([1]; 10 mg/kg/dose p.o., at the completion of the three cycles of treatment)?
Its value is “over 50%”.

What about the tumor growth ([1]; MBO 10 mg/kg/dose p.o. in combination with taxol 20 mg/kg/dose i.p., three cycles) of the same substance?
The tumor growth was “marked and sustained inhibition of tumor growth”.

What about the survival ([1]; MBO p.o. in combination with taxol i.p., three cycles) of the same substance?
The survival was “prolonged mouse life span”.

What about the “tolerability (weight loss, signs of acute or delayed toxicity)” value ([1]; combined treatment with taxol and HYB 165) of the same substance?
Its value is “well tolerated”.

What about the “inhibition of tumor growth” value ([1]; i.p., daily on days 7 to 11 and 14 to 18, FIG. 16A) of the same substance?
Its value is “up to 40%”.

And the “inhibition of tumor growth” value ([1]; oral, two cycles, vs untreated mice, FIG. 16B)?
The value was “about 60%”.

And the tumor growth ([1]; single agent, three cycles (taxol 20 mg/kg/dose i.p.; MBO 10 mg/kg/dose p.o.), FIG. 17A)?
Its tumor growth is “inhibited tumor growth”.

What about the survival time ([1]; single agent, three cycles, FIG. 17B) of the same substance?
The survival time was “increased survival time as compared to the control group”.

What about the “time of very slow tumor growth following the end of treatment” value ([1]; taxol 20 mg/kg/dose i.p. and HYB 165 10 mg/kg/dose p.o., three cycles) of the same substance?
Its value is “approximately 60 days”.

And the “mice still alive after 15 weeks” value ([1]; taxol and HYB 165 in combination)?
Its value is “about 50%”.

What about the growth inhibition ([2]; HYB 165 0.5 μM after paclitaxel 1 nM) of the same substance?
The growth inhibition was 40%.

What about the growth inhibition ([2]; HYB 165 0.5 μM after paclitaxel 5 nM) of the same substance?
The growth inhibition was 62%.

What about the growth inhibition ([2]; HYB 165 0.5 μM after paclitaxel 10 nM) of the same substance?
Its growth inhibition is 86%.

What about the growth inhibition ([2]; HYB 165 0.5 μM alone) of the same substance?
The growth inhibition was “about 20%”.

And the “cooperative effect of the combination” value ([2]; HYB 165 0.5 μM, sequential combination with different doses of paclitaxel)?
The value was “cooperatively inhibit the growth of GEO cells”.

And the “inhibition of cell growth” value ([3]; 0.1 μM)?
The value was “approximately 5%”.

What about the “inhibition of cell growth” value ([3]; 0.5 μM) of the same substance?
The value was “about 41%”.

And the “inhibition of cell growth” value ([3]; 1 μM)?
The value was “about 90%”.

And the “inhibition of cell growth” value ([3]; 2.5 μM)?
The value was “over 95%”.

And the “inhibition of cell growth” value ([4]; 0.1 μM)?
The value was “approximately 5%”.

What about the “inhibition of cell growth” value ([4]; 0.5 μM) of the same substance?
Its value is “about 50%”.

And the “inhibition of cell growth” value ([4]; 1 μM)?
Its value is “about 82%”.

What about the “inhibition of cell growth” value ([4]; 2.5 μM) of the same substance?
The value was “over 95%”.

And the “expression of AR” value (AR; in combination with taxol)?
The value was “further enhanced”.

What about the “expression of AR” value (AR; single agent) of the same substance?
The value was “inhibited the expression of TGF α and AR”.

And the “cell proliferation by Ki67 staining” value (Ki67)?
The value was “almost completely suppressed cell proliferation”.
